Three molecules from patent publication US4603044A, “Hepatocyte Directed Vesicle delivery system” (Technology Unlimited, Inc., priority 1984, dated 1986) can be followed below.

For data set [1], the system named is denervated dogs (diabetic-like state). Description: Blood glucose response to a standardized meal in selectively denervated (diabetic-like) dogs. The format is in vivo, dog. The following applies: serotonin 150 ug, intravenously or subcutaneously. From the text:
In a first study testing the HDV system, a chronic dog model was selected which mimics the early stages of adult onset diabetes mellitus, now referred to as diabetes mellitus Type II. In this model, the diabetes was induced by selective denervation.
This study was divided into three phases, studying the blood glucose response of the animals while in the (1) normal state; (2) diabetic-like state; and (3) successful treatment of the diabetic-like state with subcutaneously administered HDV containing serotonin.
The experimental plan required four normal, healthy mongrel dogs. […] The graph of FIG. 1 is a comparison chart for in vivo testing.
The data for this normal phase are shown in the graph as the line indicated by reference number 10. The data are expressed as a percentage of the fasting blood glucose value taken prior to feeding. Since four dogs were used, the average or mean value for the data is plotted. The data are statistically analyzed, and the variation in the data is shown by the small vertical bars above and below the data points. These bars are the standard error of the mean (SEM).
Following the acquisition of the data described above, the dogs were surgically denervated to induce the diabetic-like state and allowed a week to recover. At this time the study is again repeated, and the data are shown as the line indicated by reference number 12, along with the error bars (SEM). […]

Data set [2] concerns selectively denervated dog. The experiment in a line: Conversion of hepatic glucose output to uptake in selectively denervated dog, intraduodenal injection. Format: in vivo. The following applies: infusion for thirty minutes. The method, then: In this model, the response of the HDV Serotonin was the conversion of hepatic glucose output to uptake. This conversion was determined by measuring the glucose levels (Beckman Glucose Analyzer) in simultaneously obtained blood samples from the portal and hepatic veins. Sampling was by means of sampling catheters acutely placed under general anesthesia.
The state of hepatic glucose output occur when the level of glucose (mg %) in the hepatic vein exceeds that of the portal vein. Hepatic glucose uptake is the reverse situation.
Data for the experiment are found in the graph of FIG. 5. At "0" minutes, during the control period, the animal is in a state of hepatic glucose output. Because of the selective denervation, the animal stays in output (at 20 and 55 minutes), even though glucose is being infused at a rate of 0.5 g/kg body weight/hour via a mesenteric vein.
The HDV Serotonin is injected into the duodenum (0.8 ml containing 3 ug serotonin/kg) at 60 minutes.

The subject of data set [3] is selectively denervated dog. Description: Conversion of hepatic glucose output to uptake in selectively denervated dog, intravenous infusion (biliverdin target). Format: in vivo. The protocol: This dog, when infused with glucose, has portal vein glucose values (mg % measured with a Beckman Glucose Analyzer) that are less than hepatic vein glucose, indicating a hep hepatic glucose output. This is clearly seen in the data presented in the of FIG. 6. The dog is in a state of glucose output for time 15, 30 and 40 minutes. […]

Data set [4] relates to insulin-deficient (diabetic) dog. The experiment in a line: Conversion of hepatic glucose output to uptake in insulin-deficient (diabetic) dog, intravenous infusion. The following applies: insulin alone. The format is in vivo. An excerpt:
The response of HDV Insulin to be measured was the conversion of hepatic glucose output to uptake by measuring the glucose (Beckman Glucose Analyzer) levels of simultaneously obtained portal and hepatic vein blood. Diabetes had been induced by the method of Black, (Am. J. Pathol. Vol 98, No. 2, pg 295-305, 1980) and sampling was done via portal and hepatic vein catheters acutely placed under general anesthesia. The dog had been fasted from food for twenty-four hours and taken off of exogenously-administered insulin for forty-eight hours.
The state of hepatic glucose output occurs when the hepatic vein glucose level (in mg%) exceeds the portal vein glucose level. Hepatic glucose uptake is the reverse.
The data for the experiment are found in the graph of FIG. 4. At "0" minutes the dog is in glucose output, and this output is maintained through the "23" and "35" minute samples, even though glucose is infused via a mesenteric vein at a rate of 0.5 g/kg body weight/hour. An intact (non-diabetic) animal would have immediately converted to glucose uptake. This dog's diabetic state is confirmed by its' not converting to glucose uptake at these times.
Following the "35" minutes sampling, HDV Insulin was infused via the left external jugular vein at a rate of 0.03 mU/kg/minute. […] The minimum infusion rate for insulin alone is 6.25 mU/kg/minute. […]

The subject of a further data set is hypophysectomized rats. Description: Growth stimulation in hypophysectomized rats, daily subcutaneous injection. Format: in vivo, rat. The protocol: The HDVGH was administered to rats daily by subcutaneous injection. The control rats required 10 ugGH per day (also given subcutaneously) to maintain normal growth of 1 g weight gain per day. The HDVGH treated rats attained normal growth rates with dosages of HDVGH of 0.15 to 1.5 ug per day. Thus, the HDVGH required only 1/7th to 1/50th of the regular dose of growth hormone. The HDVGH was superpotent and was efficacious when given by subcutaneous injection.

`NCCc1c[nH]c2ccc(O)cc12` [serotonin, 5-hydroxytryptamine]: in data set [1], the “effect of free serotonin on post-meal blood glucose elevation” value is recorded as “not effective”. Moreover, the “intraportal infusion of free serotonin required for the same pharmacologic effect” value in data set [2] was 10-30 ug/kg body weight/minute. The “rate of free serotonin infusion required” value in data set [3] turned out to be 30 µg/kg/min.

As for “insulin: free hormone insulin, comparator to HDV Insulin”, the “minimum infusion rate for conversion to hepatic glucose uptake” value in data set [4] came out at 6.25 mU/kg/minute.

B1: GH: free growth hormone given subcutaneously to control rats (protein, UniProt P01244 27-216, looked up)
Somatotropin: FPAMPLSSLFANAVLRAQHLHQLAADTYKEFERAYIPEGQRYSIQNAQAAFCFSETIPAPTGKEEAQQRTDMELLRFSLLLIQSWLGPVQFLSRIFTNSLMFGTSDRVYEKLKDLEEGIQALMQELEDGSPRIGQILKQTYDKFDANMRSDDALLKNYGLLSCFKKDLHKAETYLRVMKCRRFAESSCAF
On to B1, for which the “daily dose to attain/maintain normal growth (1 g weight gain per day)” value in the data set with hypophysectomized rats worked out at 10 ug per day.
